Source: patent US20110130346A1, “PEPTIDE CONJUGATES FOR DELVERY OF BIOLOGICALLY ACTIVE COMPOUNDS” (ISIS INNOVATION LIMITED, priority 2008, published 2011)
“Also recorded” adds a separate entry of the source.

Assays:
[1] = system: exon and intron 23 of the dystrophin gene; assay: Example 1: intramuscular injection into TA muscle of mdx mice, count of dystrophin-positive fibres by immunohistochemistry; type: in vivo; details: for dose dependence of dystrophin induction: 5 μg, 10 μg and 20 μg intramuscular; for number of dystrophin-positive fibres per TA muscle: 20 μg intramuscular
Protocol: Three age groups of mdx mice were used: 20-21 days (referred to as 3 weeks; five mice for each test and control groups), 2-month old (five mice for test groups and control groups), and 5-6 months (referred to 6 months, six mice for each testing and control group). Mice were killed by cervical dislocation at desired time points, and muscles were snap-frozen in liquid nitrogen-cooled isopentane and stored at −80° C.
One tibialis anterior (TA) muscle of each experimental mdx mouse was injected with a 40 μl dose (3-week-old group injected with 10 μl) of PNA-peptide conjugates with saline at a final concentration of 125 μg/ml, and the contralateral muscle was injected with saline. The animals were sacrificed at various time points after injection, the muscles were removed and snap-frozen in liquid nitrogen-cooled isopentane and stored at −80° C. To examine the dose-response profile, 2-month old mdx mice received the injections of 10 μg and 20 μg of PNA-peptide conjugates.
Sections of 8 μm were cut from at least two-thirds of muscle length of TA muscles at 100 μm intervals. The sections were then examined for dystrophin expression with a polyclonal antibody 2166 against the dystrophin carboxyl-terminal dystrophin. The maximum number of dystrophin-positive fibres in one section was counted using the Zeiss AxioVision fluorescence microscope. The intervening muscle sections were collected either for Western blot or as serial sections for immunohistochemistry. Polyclonal antibodies were detected by goat-anti-rabbit IgGs Alexa Fluro 594 (Molecular probe). Routine H&E staining was used to examine overall muscle morphology and assess the level of infiltrating mononuclear cells.

[2] = system: exon 23 of the dystrophin transcript; assay: RT-PCR of exon 23 skipping after lipofectin transfection of H2K mdx cells; type: cell-based, mouse; details: 250 nm
Protocol: The H2K mdx myoblasts were cultured at 33° C. under a 10% CO2/90% air atmosphere in high-glucose DMEM supplemented with 20% fetal calf serum, 0.5% chicken embryo extract (PAA laboratories Ltd, Yeovil, UK), and 20 units/ml γ-interferon (Roche applied science, Penzberg, Germany). Cells were then treated with trypsin and plated at 2×10^4 cells per well in 24-well plates coated with 200 ug/ml gelatine (Sigma). H2K mdx cells were transfected 24 h after trypsin treatment in a final volume of 0.5 ml of antibiotic- and serum-free Opti-MEM (Life Technologies). Each well was treated with 250 nM of PNA-peptide complexed with corresponding amounts of lipofectin (weight ratio 1:2=oligolipofectin) (Life Technologies) according to the supplier's instructions. After 4 h of incubation, the transfection medium was replaced with DMEM supplemented medium.
Cells were transfected as triplicate wells with Lipofectin-Oligonucleotide complexes and total cellular RNA was then extracted 24 h after transfection with RNAeasy mini kit (Qiagen) and 200 ng of RNA template was used for 20 μl RT-PCR with OneStep RT-PCR kit (Qiagen, West Sussex, UK). The primer sequences for the initial RT-PCR were Exon20Fo 5′-[…]-3′ (SEQ ID NO: 125) and Ex26Ro 5′-[…]-3′ (SEQ ID NO: 126) for amplification of mRNA from exons 20 to 26. The cycling conditions were 95° C. for 30 sec, 55° C. for lmin, and 72° C. for 2 min for 30 cycles. […]

glucose transporters = assay: Example 3: glucose transporter inhibitors and hexose analogues in glucose-enhanced 2′OMePS AO uptake into TA muscle; type: in vivo; details: 8 week old mdx mice; for effect of inhibitor on the enhancing effect of 5% D-glucose formulation of 2′OMePS AO: intramuscular into TA; for effect of sugar or analogue used in place of D-glucose in 2′OMePS AO formulation on dystrophin-positive fibres: same concentration as D-glucose, intramuscular, two weeks
Text: To investigate whether carrier-mediated glucose uptake might be implicated in the mechanism of enhanced AO uptake into muscle, we examined the effects of a range of glucose concentrations using glucose-formulated 2′OMePS AOs. This was studied again via intramuscular administration into 8 week old mdx mice. […] The activity of glucose transporters is known to be stereospecific in that only D-glucose isomers can be actively transported. To further test the idea carrier-mediated glucose uptake might be implicated in the mechanism and to rule out possible osmotic effects of the glucose formulation we investigated the activities of D- and L-glucose isomers in AO formulations. The same concentration of L-glucose was formulated with 2′OMePS AOs and delivered to 8 week old mdx mice by local intramuscular injection.
To investigate whether specific glucose transporters might be implicated directly in the mechanism of enhanced AO uptake we tested whether or not various inhibitors of glucose transporter function could abolish the enhanced uptake of 2′OMePS AOs into TA muscles in 8 week old mdx mice. Two inhibitor compounds, phloretin and phloridzin, are well-characterised inhibitors of glucose transport. […] That enhanced AO uptake and activity was dependent on a phloretin-sensitive pathway, is a hallmark of involvement of the GLUT family of facilitative glucose transporters. Given that glucose transporter-mediated glucose uptake appeared mechanistically important, we further investigated this by studying whether any products of intracellular glucose metabolism might be implicated downstream in the uptake mechanism. To do this we investigated a glucose analogue, 3-O-methyl glucose (3-OMG) that is effectively transported by glucose transporters but not subject to phosphorylation by glucokinase by using the same concentration of 3-OMG formulated with 2′OMePS AO. Two weeks following intramuscular injection TA muscles cryosections were assayed by immunohistochemistry.
For intramuscular studies the TA muscle of each experimental mdx mouse was injected with a 40 μl dose of PNA and PNA-peptide conjugates with saline at a final concentration of 125 μg/ml, and the contralateral muscle was injected with saline. For systemic intravenous injections, X μg PNA or PNA-peptide conjugates in 80 μl saline buffer were injected into tail vein of mdx mice at the final dose of 25 mg/kg and 6 mg/kg, respectively. The animals were killed at various time points after injection by CO2 inhalation and tissues were removed and snap-frozen in liquid nitrogen-cooled isopentane and stored at −80° C.
Sections of 8 μm were cut from at least two-thirds of the muscle length of TA, quadriceps, gastrocnemius, biceps, abdominal wall and diaphragm muscles and cardiac muscle at 100 μm intervals. The sections were then examined for dystrophin expression with a polyclonal antibody 2166 against the dystrophin carboxyl-terminal region. The maximum number of dystrophin-positive fibres in one section was counted using the Zeiss AxioVision fluorescence microscope. The intervening muscle sections were collected either for RT-PCR analysis and Western blot or as serial sections for immunohistochemistry. Polyclonal antibodies were detected by goat-anti-rabbit IgGs Alexa Fluro 594 (Molecular Probe, UK). Routine haematoxylin and eosin staining was used to examine overall muscle morphology and assess the level of infiltrating mononuclear cells. The serial sections were also stained with a panel of polyclonal and monoclonal antibodies for the detection of DAPC protein components. Rabbit polyclonal antibody to neuronal nitric oxide synthase (nNOS) and mouse monoclonal antibodies to β dystroglycan, α-sarcoglycan and β-sarcoglycan were used according to manufacturer's instructions (Novocastra, UK). Polyclonal antibodies were detected by goat-anti-rabbit IgGs Alexa 594 and the monoclonal antibodies by goat-anti-mouse IgGs Alexa 594 (Molecular Probe, UK). […]

[3] = 2-month old mdx mice, 5 μg intramuscular
[4] = 2-month old mdx mice, single 5 μg intramuscular injection into TA, two weeks

For “IVADNLQQQNTAPQIGTVNSQ-S-S-Lggccaaacctcggcttacct [AAV8]”, the “dystrophin-positive fibres observed (in words)” value [1, 3] was “large number of dystrophin-positive fibres”, the “dose dependence of dystrophin induction” value ([1]; 2-month old mdx mice) was “significant difference between 10 μg and 5 μg injection; also recorded: no further increase” and the “number of dystrophin-positive fibres” value ([1]; 2-month old mdx mice, 10 μg intramuscular (printed 'bug')) was 308±20. For the same compound, the “number of dystrophin-positive fibres per TA muscle” value ([1]; 2-month old mdx mice) was 282±63, the “number of dystrophin-positive fibres” value [1, 4] was 171±40 and the “removal of exon 23 from the dystrophin transcript (RT-PCR)” value [2] was “efficient removal of exon 23”.
For ASSLNIA-S-S-Lggccaaacctcggcttacct [MSP], the “dystrophin-positive fibres observed (in words)” value [1, 3] was “large number of dystrophin-positive fibres”, the “focal areas with strong dystrophin-positive muscle fibres” value [1, 3] was “observed” and the “dose dependence of dystrophin induction” value ([1]; 2-month old mdx mice) was “not significant”. For the same compound, the “number of dystrophin-positive fibres” value ([1]; 6-month old mdx mice, single 5 μg intramuscular) was 237±58.
With “TVAVNLQSSSTDPATGDVHVM-S-S-Lggccaaacctcggcttacct [AAV6]” the “dystrophin-positive fibres in 3-week and 6-month old mice in comparison with 2-month old mice” value ([1]; 5 μg intramuscular) was “slightly fewer dystrophin-positive fibres”, the “dystrophin-positive fibres observed (in words)” value [1, 3] was “large number of dystrophin-positive fibres” and the “focal areas with strong dystrophin-positive muscle fibres” value [1, 3] was “observed”. The “dose dependence of dystrophin induction” value ([1]; 2-month old mdx mice) was “significant difference between 20 μg and 5, 10 μg injection”, the “number of dystrophin-positive fibres per TA muscle” value ([1]; 2-month old mdx mice) was 424 (±86) and the “number of dystrophin-positive fibres” value [1, 4] was 251.
In the case of O=C(CCc1ccc(O)cc1)c1c(O)cc(O)cc1O[C@@H]1O[C@H](CO)[C@@H](O)[C@H](O)[C@H]1O [phloridzin], the “effect of inhibitor on the enhancing effect of 5% D-glucose formulation of 2′OMePS AO” value (glucose transporters) is reported as “partially but significantly abolished”.
For O=C[C@@H](O)[C@@H](O)[C@H](O)[C@H](O)CO [D-mannose], the “effect of sugar or analogue used in place of D-glucose in 2′OMePS AO formulation on dystrophin-positive fibres” value (“effect of sugar or analogue used” for short) (glucose transporters) was “replicated”.
With CO[C@@H]([C@H](O)[C@H](O)CO)[C@@H](O)C=O [3-OMG, 3-O-methyl glucose] the “effect of sugar or analogue used” value (glucose transporters) was “decrease in the number of dystrophin-positive fibres”.
For O=C[C@@H](O)[C@H](O)[C@@H](O)[C@@H](O)CO [L-glucose], the “effect of sugar or analogue used” value (glucose transporters) was “significant decrease in number of dystrophin-positive myofibres”.
For O=C[C@H](O)[C@@H](O)[C@@H](O)[C@H](O)CO [D-galactose], the “effect of sugar or analogue used” value (glucose transporters) was “replicated”.
OCC1OC(O)CC(O)C1O (stereo not drawn) [2-DG] was tested, and the “effect of sugar or analogue used” value (glucose transporters) was “abolished”.
With CO[C@H]1O[C@H](CO)[C@H](O)[C@H](O)[C@H]1O [AMG] the “effect of sugar or analogue used” value (glucose transporters) was “abolished”.
In the case of O=C(CCc1ccc(O)cc1)c1c(O)cc(O)cc1O [phloretin], the “effect of inhibitor on the enhancing effect of 5% D-glucose formulation of 2′OMePS AO” value (glucose transporters) is reported as “completely abolished”.
